Earlier results in US20040101549A1, “Treatments” (priority 2002, published 2004).

Substance: polyestradiol phosphate [PEP]
- overall and cardiovascular mortality versus maximum androgen blockade (915 patients randomized, over 6 years, Hedlund & Henriksson): equivalent
- long-term cardiovascular protection (epidemiological comparison to an age-standardized population, Aro): significant long-term cardiovascular protection
- reduction of short-term cardiovascular morbidity (intramuscular, first line CaP therapy, Mikkola et al): over 90%
